For experiment [1], the system named is Ba/F3 cells transfected with FLT3 WT. Description: Cytotoxicity in isogenic transfected Ba/F3 cells (Table 4). The conditions noted are these: Mus musculus, BaF3; n = 3; read-out: IC50 in Transfected Ba/F3 cells, FLT3 WT. The format is cell-based, Murin.
The subject of experiment [2] is Ba/F3 cells transfected with FLT3 D835Y. The description is as above. The experiment is classed as cell-based, Murin. The conditions noted are these: Mus musculus, BaF3; n = 3; read-out: IC50 in Transfected Ba/F3 cells, FLT3 D835Y.
The test system of experiment [3] is Ba/F3 cells transfected with FLT3 ITD. Described as above. As to conditions: Mus musculus, BaF3; n = 3; read-out: IC50 in Transfected Ba/F3 cells, FLT3 ITD. The experiment is classed as cell-based, Murin.
Experiment [4] relates to Ba/F3 cells transfected with FLT3 ITD-D835Y. The experiment is described as above. The format is cell-based, Murin. The conditions noted are these: Mus musculus, BaF3; n = 3; read-out: IC50 in Transfected Ba/F3 cells, FLT3 ITD-D835Y.
The test system of experiment [5] is Ba/F3 cells transfected with FLT3 ITD-F691L. The description is as above. As to conditions: Mus musculus, BaF3; n = 3; read-out: IC50 in Transfected Ba/F3 cells, FLT3 ITD-F691L. The experiment is classed as cell-based, Murin.
The subject of experiment [6] is Ba/F3-FLT3 (FLT3-WT). Nature of the experiment: Antiproliferative activity (Table 6). The conditions noted are these: Ba/F3-FLT3, FLT3-WT; 48 h (Gilteritinib); read-out: IC50. The format is cell-based, Murin.
For experiment [7], the system named is Ba/F3-ITD (FLT3-ITD). Nature of the experiment: Antiproliferative activity (Table 6). The format is cell-based, Murin. As to conditions: Ba/F3-ITD; 48 h (Gilteritinib); read-out: IC50.
The test system of experiment [8] is Ba/F3-D835G (FLT3-D835G). Description: Antiproliferative activity (Table 6). As to conditions: Ba/F3-D835G; 48 h (Gilteritinib); read-out: IC50. The format is cell-based, Murin.
For experiment [9], the system named is Ba/F3-D835Y (FLT3-D835Y). Description: Antiproliferative activity (Table 6). The experiment is classed as cell-based, Murin. As to conditions: Ba/F3-D835Y; 48 h (Gilteritinib); read-out: IC50.
The test system of experiment [10] is Ba/F3-ITD + 691 (ITD + F691L). Description: Antiproliferative activity (Table 6). The conditions noted are these: Ba/F3-ITD + 691 (ITD + F691L); 48 h (Gilteritinib); read-out: IC50. The format is cell-based, Murin.
Experiment [11] concerns Ba/F3-ITD + 842 (ITD + Y842C). Nature of the experiment: Antiproliferative activity (Table 6). The format is cell-based, Murin. The conditions noted are these: Ba/F3-ITD + 842 (ITD + Y842C); 48 h (Gilteritinib); read-out: IC50.
Experiment [12] concerns Ba/F3-ITD + D835Y (FLT3-ITD + D835Y). Description: Antiproliferative activity (Table 6). The experiment is classed as cell-based, Murin. The conditions noted are these: Ba/F3-ITD + D835Y; 48 h (Gilteritinib); read-out: IC50.
The test system of experiment [13] is Ba/F3-ITD + D835H (FLT3-ITD + D835H). Description: Antiproliferative activity (Table 6). The conditions noted are these: Ba/F3-ITD + D835H; 48 h (Gilteritinib); read-out: IC50. The experiment is classed as cell-based, Murin.
Experiment [14] concerns MOLM13 (FLT3-ITD, t(9:11)). Description: Antiproliferative activity (Table 6). The experiment is classed as cell-based. The conditions noted are these: Homo sapiens, MOLM-13; MOLM13; 48 h (Gilteritinib); read-out: IC50.
In experiment [15] the test system is MOLM14 (FLT3-ITD, t(9:11)). Nature of the experiment: Antiproliferative activity (Table 6). The experiment is classed as cell-based. As to conditions: Homo sapiens, MOLM-14; MOLM14; 48 h (Gilteritinib); read-out: IC50.
For experiment [16], the system named is MV4-11 (FLT3-ITD, t(4:11)). Nature of the experiment: Antiproliferative activity (Table 6). The format is cell-based. As to conditions: Homo sapiens; MV4-11; 48 h (Gilteritinib); read-out: IC50.
In experiment [17] the test system is THP-1 (FLT3-WT, t(9:11)). Description: Antiproliferative activity (Table 6). The conditions noted are these: Homo sapiens; THP-1; 48 h (Gilteritinib); read-out: IC50. The experiment is classed as cell-based.
The test system of experiment [18] is Kasumi-1 (FLT3-WT). Nature of the experiment: Antiproliferative activity (Table 6). The format is cell-based. The conditions noted are these: Homo sapiens; Kasumi-1; 48 h (Gilteritinib); read-out: IC50.
The target of experiment [19] is BTK WT (Homo sapiens, UniProt Q06187). Description: Comparative potency against BTK (Table 8). The experiment is classed as biochemical. The conditions noted are these: Table 8, wild-type BTK.
Sequence of BTK WT (Q06187 whole entry): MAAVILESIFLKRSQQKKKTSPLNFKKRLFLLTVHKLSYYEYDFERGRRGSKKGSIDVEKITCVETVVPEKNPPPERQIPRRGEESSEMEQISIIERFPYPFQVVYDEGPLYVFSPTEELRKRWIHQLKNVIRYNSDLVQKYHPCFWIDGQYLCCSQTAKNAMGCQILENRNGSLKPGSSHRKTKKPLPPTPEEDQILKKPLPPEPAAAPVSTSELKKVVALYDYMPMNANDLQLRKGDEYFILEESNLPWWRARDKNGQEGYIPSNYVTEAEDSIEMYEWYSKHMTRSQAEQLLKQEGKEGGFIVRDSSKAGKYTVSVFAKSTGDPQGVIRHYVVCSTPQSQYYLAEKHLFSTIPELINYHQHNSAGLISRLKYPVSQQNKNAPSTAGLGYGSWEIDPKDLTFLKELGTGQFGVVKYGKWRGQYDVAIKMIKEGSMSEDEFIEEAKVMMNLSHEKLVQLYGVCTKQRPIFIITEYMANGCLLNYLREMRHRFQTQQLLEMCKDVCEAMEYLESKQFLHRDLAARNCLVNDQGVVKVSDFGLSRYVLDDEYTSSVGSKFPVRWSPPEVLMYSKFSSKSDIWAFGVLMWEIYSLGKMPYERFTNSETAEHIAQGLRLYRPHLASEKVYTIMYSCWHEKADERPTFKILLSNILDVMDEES
Experiment [20] concerns the target BTK C481S (Homo sapiens, UniProt Q06187, C481S). Description: Comparative potency against BTK (Table 8). The experiment is classed as biochemical. The conditions noted are these: x printed without key.
Experiment [21] has as its target ITK (Homo sapiens, UniProt Q08881). Description: Key off-targets (Table 8). The format is biochemical.

Sequence of BTK C481S (Q06187 whole entry C481S): as the sequence (Q06187 whole entry) above, with C481S counted along it
Sequence of ITK (Q08881 whole entry): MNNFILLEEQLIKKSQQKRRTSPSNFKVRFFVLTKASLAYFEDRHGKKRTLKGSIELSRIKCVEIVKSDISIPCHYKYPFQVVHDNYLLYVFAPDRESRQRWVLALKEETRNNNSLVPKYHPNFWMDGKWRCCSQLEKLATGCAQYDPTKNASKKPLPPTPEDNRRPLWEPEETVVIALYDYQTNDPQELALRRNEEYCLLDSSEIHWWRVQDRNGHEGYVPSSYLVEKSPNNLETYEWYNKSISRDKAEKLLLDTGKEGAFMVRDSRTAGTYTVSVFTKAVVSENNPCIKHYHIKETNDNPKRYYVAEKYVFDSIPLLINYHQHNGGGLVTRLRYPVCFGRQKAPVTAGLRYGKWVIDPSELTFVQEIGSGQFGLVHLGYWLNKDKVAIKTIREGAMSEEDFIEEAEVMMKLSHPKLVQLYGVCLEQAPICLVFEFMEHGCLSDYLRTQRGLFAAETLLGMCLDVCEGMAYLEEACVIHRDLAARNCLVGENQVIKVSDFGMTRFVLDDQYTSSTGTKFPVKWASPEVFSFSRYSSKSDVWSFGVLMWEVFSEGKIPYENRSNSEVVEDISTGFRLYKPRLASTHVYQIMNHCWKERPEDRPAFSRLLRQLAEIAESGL

Turning to `CC1(COc2ccc3c(c2)ncn3-c2ccc3cccc(N4CCC(N)CC4)c3n2)COC1` [Crenolanib], the IC50 in experiment [1] came out at 2620 nM; in experiment [2], 889 nM; in experiment [3], 35 nM; in experiment [4], 31.7 nM; in experiment [5], 258 nM.

Take `CCc1nc(C(N)=O)c(Nc2ccc(N3CCC(N4CCN(C)CC4)CC3)c(OC)c2)nc1NC1CCOCC1` [Gilteritinib, reference compound]: the IC50 in [1] came to 500 nM; in experiment [2], 472 nM; in experiment [3], 26.5 nM; in [4] it was 6.8 nM; in experiment [5] it was 98.4 nM; in [6], 79.5 nM. In addition, the IC50 in [7] was 36.2 nM; in [8], 28.1 nM; in experiment [9], 373 nM; in [10], 119 nM; in [11], 44.7 nM; in [12] it was 10.6 nM. Besides, the IC50 in [13] came to 10.4 nM; in [14], 35.8 nM; in [15], 58.8 nM; in [16], 176 nM; in experiment [17], 2300 nM; in experiment [18], 2230 nM.

Take `NC(=O)[C@H]1CCN(c2ncnc(N)c2F)C[C@@H]1N1CCC[C@@H](Nc2cc(Cl)cc(C(F)(F)F)c2)C1=O` [SNS-062, reference compound]: the IC50 in experiment [19] was 0.4 nM; in experiment [20], 4.5 nM; in experiment [21] it was 49 nM.

The record behind these values is patent US20180344702A1, “METHODS FOR TREATING PATIENTS WITH HEMATOLOGIC MALIGNANCIES” (Aptose Biosciences, Inc., priority 2017, published 2018).
